In PMC12951562, “SH2scan: Mapping SH2 Domain-Ligand Binding Selectivity for Inhibitors and Degraders” (Journal of Medicinal Chemistry, 2026):
Non-standard residues stand in square brackets, D forms with d. Residues, ends and D or L forms follow the SMILES beside them. *: point of attachment. pY = N[C@@H](Cc1ccc(OP(=O)(O)O)cc1)C(=O)O; Caffeoyl = O=C(/C=C/c1ccc(O)c(O)c1)*

How the values were obtained:
CBL = biological target: T1, CBL (Homo sapiens, UniProt P22681); experiment: biochemical; type: binding
T1 construct: the DNA-tagged SH2 domain concentrations used in this study were <0.1 nM; made in house; host or cells: HEK293 (transient transfection; unpurified extract)
T1 sequence (P22681 249-351 limits assumed): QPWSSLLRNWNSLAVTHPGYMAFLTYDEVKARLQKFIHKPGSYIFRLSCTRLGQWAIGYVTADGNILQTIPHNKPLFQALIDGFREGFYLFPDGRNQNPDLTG

ZAP70(SH2dom1.dom2.) = biological target: T2, ZAP70(SH2dom1.dom2.) (Homo sapiens, UniProt P43403); conditions: primary screen, 10 μM
T2 sequence (P43403 1-254 limits assumed): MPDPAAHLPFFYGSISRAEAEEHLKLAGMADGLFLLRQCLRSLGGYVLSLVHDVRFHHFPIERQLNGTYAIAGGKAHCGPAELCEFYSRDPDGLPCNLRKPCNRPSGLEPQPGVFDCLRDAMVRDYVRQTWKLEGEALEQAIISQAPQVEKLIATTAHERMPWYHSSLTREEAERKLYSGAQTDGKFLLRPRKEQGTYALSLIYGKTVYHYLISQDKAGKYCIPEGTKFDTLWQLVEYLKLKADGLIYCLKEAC

FYN = system: FYN; set-up: method as in Gay et al., International Journal of Cancer, 1999; conditions: ELISA; ref Gay et al., International Journal of Cancer, 1999; cited from earlier work
GRB2 = system: GRB2; set-up: method as in Gay et al., International Journal of Cancer, 1999; conditions: ELISA; ref Gay et al., International Journal of Cancer, 1999; cited from earlier work
PIK3R1 (SH2dom.N-term.) = system: PIK3R1 (SH2dom.N-term.); set-up: method as in Gay et al., International Journal of Cancer, 1999; conditions: ELISA; ref Gay et al., International Journal of Cancer, 1999; cited from earlier work
PTPN11 (SH2dom.C-term.) = system: PTPN11 (SH2dom.C-term.); set-up: method as in Gay et al., International Journal of Cancer, 1999; conditions: ELISA; ref Gay et al., International Journal of Cancer, 1999; cited from earlier work
PTPN11 (SH2dom.N-term.) = system: PTPN11 (SH2dom.N-term.); set-up: method as in Gay et al., International Journal of Cancer, 1999; conditions: ELISA; ref Gay et al., International Journal of Cancer, 1999; cited from earlier work
SOCS2 = biological target: SOCS2; set-up: method as in Ramachandran et al., Nature Communications, 2023; conditions: ITC; ref Ramachandran et al., Nature Communications, 2023; cited from earlier work
STAT1 = biological target: STAT1; set-up: method as in Bai et al., Cancer Cell, 2019; conditions: FP and BLI; ref Bai et al., Cancer Cell, 2019; cited from earlier work
STAT2 = biological target: STAT2; set-up: method as in Bai et al., Cancer Cell, 2019; conditions: FP and BLI; ref Bai et al., Cancer Cell, 2019; cited from earlier work
STAT3 = biological target: STAT3; set-up: method as in Bai et al., Cancer Cell, 2019; conditions: FP and BLI; ref Bai et al., Cancer Cell, 2019; cited from earlier work
STAT4 [1] = biological target: STAT4; set-up: method as in Bai et al., Cancer Cell, 2019; conditions: FP and BLI; ref Bai et al., Cancer Cell, 2019; cited from earlier work
STAT5A = biological target: STAT5A; set-up: method as in Bai et al., Cancer Cell, 2019; conditions: FP and BLI; ref Bai et al., Cancer Cell, 2019; cited from earlier work
STAT5B [2] = biological target: STAT5B; set-up: method as in Bai et al., Cancer Cell, 2019; conditions: FP and BLI; ref Bai et al., Cancer Cell, 2019; cited from earlier work
STAT6 [3] = biological target: STAT6; set-up: method as in Bai et al., Cancer Cell, 2019; conditions: FP and BLI; ref Bai et al., Cancer Cell, 2019; cited from earlier work
STAT6 [4] = system: STAT6; set-up: method as in Mandal et al., Journal of Medicinal Chemistry, 2015; conditions: FP; ref Mandal et al., Journal of Medicinal Chemistry, 2015; cited from earlier work
STAT4 [5] = biological target: STAT4; set-up: method as in earlier work; conditions: FP; ref Elumalai et al., Angewandte Chemie International Edition, 2015; cited from earlier work
STAT5B [6] = biological target: STAT5B; set-up: method as in earlier work; conditions: FP; ref Elumalai et al., Angewandte Chemie International Edition, 2015; cited from earlier work
STAT6 [7] = biological target: STAT6; set-up: method as in earlier work; conditions: FP; ref Elumalai et al., Angewandte Chemie International Edition, 2015; cited from earlier work

## CC[C@H](C)[C@H](NC(=O)[C@H](CCC(=O)O)NC(=O)[C@H](CCC(=O)O)NC(=O)[C@H](Cc1ccc(OP(=O)(O)O)cc1)NC(C)=O)C(=O)N[C@@H](CCC(=O)O)C(N)=O [Ac-pYEEIE-NH2] (Ac-[pY]EEIE-NH2)
CBL; primary screen, 10 μM
  percent of DMSO vehicle control: 121.6%
ZAP70(SH2dom1.dom2.)
  percent of DMSO vehicle control: 134.0%

## CC(=O)N[C@@H](Cc1ccc(CP(=O)(O)O)cc1)C(=O)NC1(C(=O)N[C@@H](CC(N)=O)C(=O)NCCCc2c(O)ccc3ccccc23)CCCCC1 [CGP78850]
FYN
  IC50: > 50 µM
GRB2
  IC50: 0.04 µM
PIK3R1 (SH2dom.N-term.)
  IC50: > 50 µM
PTPN11 (SH2dom.C-term.)
  IC50: > 50 µM
PTPN11 (SH2dom.N-term.)
  IC50: > 50 µM

## CC[C@H](C)[C@H](NC(=O)[C@H](CCC(=O)O)NC(=O)[C@H](CCC(=O)O)NC(=O)[C@H](Cc1ccc(OP(=O)(O)O)cc1)NC(=O)/C=C/c1ccc(O)c(O)c1)C(=O)N[C@@H](CCC(=O)O)C(=O)O [Caffeic acid-pYEEIE] (Caffeoyl-[pY]EEIE-OH)
CBL
  Kd: 11 µM

## O=C(CCl)Nc1cccc(CNC(=O)[C@H](Cc2ccc(OP(=O)(O)O)cc2)NC(=O)Cc2ccc(F)cc2)c1 [MN551]
SOCS2
  Kd: 2.18 µM

## NC(=O)CC[C@H](NC(=O)[C@@H]1CC[C@@H]2CCN(C(=O)CCCCCC#Cc3cccc4c3CN(C3CCC(=O)NC3=O)C4=O)C[C@H](NC(=O)c3cc4cc(C(F)(F)P(=O)(O)O)ccc4[nH]3)C(=O)N21)C(=O)NC(c1ccccc1)c1ccccc1 (stereo partly drawn) [SD-36]
STAT1
  Kd: 1.09 µM
STAT2
  Kd: 4.88 µM
STAT3
  Kd: 0.0444 µM
STAT4 [1]
  Kd: 0.804 µM
STAT5A
  Kd: 6.18 µM
STAT5B [2]
  Kd: 11.7 µM
STAT6 [3]
  Kd: 11.3 µM

## CC(=O)N1CC[C@H]2CC[C@@H](C(=O)N[C@@H](CCC(N)=O)C(=O)NC(c3ccccc3)c3ccccc3)N2C(=O)[C@@H](NC(=O)c2cc3cc(C(F)(F)P(=O)(O)O)ccc3[nH]2)C1 [SI-109]
STAT1
  Kd: 1.27 µM
STAT2
  Kd: 6.63 µM
STAT3
  Kd: 0.0512 µM
STAT4 [1]
  Kd: 1.98 µM
STAT6 [3]
  Kd: 3.37 µM

## C/C(=C\C(=O)N[C@H](C(=O)N1CCC[C@H]1C(=O)N(c1ccccc1)c1ccc(I)cc1)C(C)(C)C)c1ccc(OP(=O)(O)O)cc1 [STAT6-IN-1]
CBL
  Kd: 8.1 ± 1.3 µM
STAT6 [4]
  IC50: 0.028 µM

## CC(C)(C)[C@H](NC(=O)/C=C/c1ccc(OP(=O)(O)O)cc1)C(=O)N1CCC[C@H]1C(=O)N(c1ccccc1)c1ccc(I)cc1 [STAT6-IN-3]
STAT6 [4]
  IC50: 0.044 µM

## O=C(COc1ccc2cc(C(=O)Nc3ccccc3)ccc2c1)NCc1ccc(OP(=O)(O)O)c(OP(=O)(O)O)c1 [Stafib-1]
STAT4 [5]
  Ki: 3.29 µM
STAT5B [6]
  Ki: 0.044 µM
STAT6 [7]
  Ki: 3.47 µM
